This note sets out measurements from PMC8658928, “Isolation of N-Ethyl-2-pyrrolidinone-Substituted Flavanols from White Tea Using Centrifugal Countercurrent Chromatography Off-Line ESI-MS Profiling and Semi-Preparative Liquid Chromatography” (Molecules, 2021).

The target in the experiment is α-glucosidase. Kind of experiment: pNPG hydrolysis assay, absorbance at […] nm, pH […]. The format is biochemical.
`O=C(O[C@@H]1Cc2c(O)cc(O)cc2O[C@@H]1c1cc(O)c(O)c(O)c1)c1cc(O)c(O)c(O)c1` [EGCG] had an IC50 of 129 µM.

On to `CCN1C(=O)CC[C@@H]1c1c(O)cc(O)c2c1O[C@H](c1cc(O)c(O)c(O)c1)[C@H](OC(=O)c1cc(O)c(O)c(O)c1)C2` [R-EGCG-cThea], for which half-maximal inhibition (IC50) was put at 70.3 µM.

`CCN1C(=O)CC[C@H]1c1c(O)cc(O)c2c1O[C@H](c1cc(O)c(O)c(O)c1)[C@H](OC(=O)c1cc(O)c(O)c(O)c1)C2` [S-EGCG-cThea] came in with an IC50 of 162 µM.
